Measurements published in US9978954B2, “Benzobis (thiadiazole) derivative, ink comprising same, and organic electronic device comprising same” (UBE INDUSTRIES, LTD., priority 2013, dated 2018).
One block for each molecule: values may come before it.

Test: Evaluation of solubility in organic solvents (visual observation of complete dissolution)
Type: physicochemical
Protocol: [Evaluation of Solubility]
The evaluation of the solubility of the synthesized compound was conducted by the following method.
About 2-3 mg of the compound was precisely weighed, and each solvent was added to the compound such that a predetermined concentration of the solute (0.5 wt %, 0.3 wt %, 0.2 wt %, 0.1 wt %, 0.05 wt %, or 0.03 wt %) was reached. The resultant mixture was stirred for 30 minutes at a predetermined temperature, and then it was evaluated by visual appearance observation whether or not the solute (synthesized compound) was completely dissolved in the solvent, which was the result of the evaluation of the solubility. As the solvent, chloroform (boiling point 61° C.), toluene (boiling point 111° C.), xylene (boiling point 144° C.), mesitylene (boiling point 165° C.), chlorobenzene (boiling point 130° C.), para-chlorotoluene (boiling point 162° C.), and ortho-dichlorobenzene (boiling point 181° C.) were used.

[1] = chloroform, 25° C. (room temperature)
[2] = 1-methylnaphthalene, 25° C. (room temperature)

Molecule: CCCCCCCc1cc(-c2ccc(-c3c4c(c(-c5ccc(-c6ccc(C#N)c(CCCCCCC)c6)s5)c5nsnc35)N=S=N4)s2)ccc1C#N [Compound (C13), 4,8-bis[5-(4-cyano-3-heptylphenyl)thiophene-2-yl]benzo[1,2-c:4,5-c′]bis[1,2,5]thiadiazole]
solubility (solute concentration completely dissolved) (chlorobenzene, 80° C.): ≥ 0.3 wt % | solubility (solute concentration completely dissolved) [1]: ≥ 0.2 wt % | solubility (solute concentration completely dissolved) (ortho-dichlorobenzene, 80° C.): ≥ 0.3 wt % | solubility (solute concentration completely dissolved) (para-chlorotoluene, 80° C.): ≥ 0.3 wt %

Molecule: 4,8-bis[5-(4-cyano-3-(2-methylhexyl)phenyl)thiophene-2-yl]benzo[1,2-c:4,5-c′]bis[1,2,5]thiadiazole [Compound (C29)]
solubility (solute concentration completely dissolved) (1-methylnaphthalene, 60° C.): ≥ 0.3 wt % | solubility (solute concentration completely dissolved) (chloroform, 60° C.): ≥ 0.1 wt %

Molecule: CCCCCCCCc1cc(-c2ccc(-c3c4c(c(-c5ccc(-c6ccc(C#N)c(CCCCCCCC)c6)s5)c5nsnc35)N=S=N4)s2)ccc1C#N [Compound (C14), 4,8-bis[5-(4-cyano-3-octylphenyl)thiophene-2-yl]benzo[1,2-c:4,5-c′]bis[1,2,5]thiadiazole]
solubility (solute concentration completely dissolved) (chlorobenzene, 80° C.): ≥ 0.3 wt % | solubility (solute concentration completely dissolved) [1]: ≥ 0.1 wt % | solubility (solute concentration completely dissolved) (chloroform, 60° C.): ≥ 0.2 wt % | solubility (solute concentration completely dissolved) (ortho-dichlorobenzene, 60° C.): ≥ 0.3 wt % | solubility (solute concentration completely dissolved) (para-chlorotoluene, 100° C.): ≥ 0.3 wt %

Molecule: FC(F)(F)Oc1cccc(-c2ccc(-c3c4c(c(-c5ccc(-c6cccc(OC(F)(F)F)c6)s5)c5nsnc35)N=S=N4)s2)c1 [Compound (C1), 4,8-bis[5-(3-(trifluoromethoxy)phenyl)thiophene-2-yl]benzo[1,2-c:4,5-c′]bis[1,2,5]thiadiazole]
solubility (solute concentration completely dissolved) (mesitylene, 80° C.): ≥ 0.1 wt % | solubility (solute concentration completely dissolved) (mesitylene, 130° C.): ≥ 0.3 wt % | solubility (solute concentration completely dissolved) (toluene, 100° C.): ≥ 0.1 wt %

Now from value to molecule:

solubility (solute concentration completely dissolved) (chlorobenzene, 80° C.): ≥ 0.3 wt % | solubility (solute concentration completely dissolved) (chloroform, 60° C.): ≥ 0.2 wt % | solubility (solute concentration completely dissolved) (ortho-dichlorobenzene, 80° C.): ≥ 0.3 wt % | solubility (solute concentration completely dissolved) (para-chlorotoluene, 80° C.): ≥ 0.3 wt %
Molecule: CCCCCCCCCCc1cc(-c2ccc(-c3c4c(c(-c5ccc(-c6ccc(C#N)c(CCCCCCCCCC)c6)s5)c5nsnc35)N=S=N4)s2)ccc1C#N [Compound (C16), 4,8-bis[5-(4-cyano-3-decylphenyl)thiophene-2-yl]benzo[1,2-c:4,5-c′]bis[1,2,5]thiadiazole]

solubility (solute concentration completely dissolved) [2]: ≥ 0.3 wt % | solubility (solute concentration completely dissolved) [1]: ≥ 0.2 wt % | solubility (solute concentration completely dissolved) (mesitylene, 25° C.): ≥ 0.3 wt % | solubility (solute concentration completely dissolved) (ortho-dichlorobenzene, 25° C.): ≥ 0.3 wt % | solubility (solute concentration completely dissolved) (toluene, 25° C.): ≥ 0.3 wt %
Molecule: CCCCC(CC)Cc1ccc(-c2ccc(-c3c4c(c(-c5ccc(-c6ccc(CC(CC)CCCC)c(C(F)(F)F)c6)s5)c5nsnc35)N=S=N4)s2)cc1C(F)(F)F (centres unmarked) [Compound (C31)]

solubility (solute concentration completely dissolved) [2]: ≥ 0.3 wt % | solubility (solute concentration completely dissolved) (chlorobenzene, 80° C.): ≥ 0.3 wt % | solubility (solute concentration completely dissolved) (chloroform, 60° C.): ≥ 0.2 wt % | solubility (solute concentration completely dissolved) (ortho-dichlorobenzene, 80° C.): ≥ 0.3 wt %
Molecule: CCCCCCCCCCCCCCCCc1cc(-c2ccc(-c3c4c(c(-c5ccc(-c6ccc(C#N)c(CCCCCCCCCCCCCCCC)c6)s5)c5nsnc35)N=S=N4)s2)ccc1C#N [Compound (C19), 4,8-bis[5-(4-cyano-3-hexadecylphenyl)thiophene-2-yl]benzo[1,2-c:4,5-c′]bis[1,2,5]thiadiazole]

solubility (solute concentration completely dissolved) (1-methylnaphthalene, 60° C.): ≥ 0.3 wt % | solubility (solute concentration completely dissolved) (chloroform, 60° C.): ≥ 0.2 wt % | solubility (solute concentration completely dissolved) (mesitylene, 60° C.): ≥ 0.3 wt % | solubility (solute concentration completely dissolved) (ortho-dichlorobenzene, 60° C.): ≥ 0.3 wt % | solubility (solute concentration completely dissolved) (toluene, 60° C.): ≥ 0.3 wt %
Molecule: CCCCCCCCc1ccc(-c2ccc(-c3c4c(c(-c5ccc(-c6ccc(CCCCCCCC)c(C(F)(F)F)c6)s5)c5nsnc35)N=S=N4)s2)cc1C(F)(F)F [Compound (C25), 4,8-bis[5-(4-octyl-3-(trifluoromethyl)phenyl)thiophene-2-yl]benzo[1,2-c:4,5-c′]bis[1,2,5]thiadiazole]
